{
  "source": "patent US7514419B2",
  "about": "“Phosphorus-containing thyromimetics” (Metabasis Therapeutics, Inc., priority 2003, dated 2009)",
  "key": {"[1]": {"tested_on": "cholesterol-fed rat", "experiment": "Subacute study in cholesterol-fed rats, IP once-a-day for seven days: serum cholesterol, heart weight, heart mGPDH", "quoted_text": "The cholesterol-fed rat is an animal model of hypercholesterolemia generated by feeding the animals a diet with high cholesterol content.\nMethods: Rats were maintained on a diet containing 1.5% cholesterol and 0.5% cholic acid for 2 weeks prior to initiation of treatment. Serum cholesterol values were assessed and the animals randomized into groups for treatment."}, "[2]": {"tested_on": "ZDF rats", "experiment": "Hepatic triglyceride content and steatosis in ZDF rats, oral 28 days", "assay_type": "in vivo, rat", "experimental": "In other experiments, Compound 7 was orally administered to ZDF rats for 28 days. Liver triglycerides were analyzed as described above. Total liver triglycerides were reduced in the treated animals 42% in the 2.5 mg/kg/d group. […] The hepatic steatosis is a well known and described phenomenon for the ZDF rat, and therefore not attributable to vehicle treatment."}, "[3]": {"tested_on": "ZDF rats", "experiment": "Circulating TSH, ZDF rats, 28 days", "assay_type": "in vivo, rat", "conditions": "50 mg/kg/d for 28 days", "description": "(§1) Another concern with synthetic thyromimetics is the suppression of the endogenous thyroid axis. Thyroid homeostasis is maintained by the action of thyroid releasing hormone (TRH) and thyroid stimulating hormone (TSH). […] Although this particular side effect has been noted, it has typically been treated with less concern than the cardiac safety issues. […] Therefore previous investigators have measured TSH levels when testing synthetic thyromimetics and have used a 30% decrease of TSH as the denominator in their therapeutic index calculations. […] Therefore, both compounds suppress TSH as doses lower than that required to decrease circulating cholesterol. […] However, 0.2 mg/kg/d of Compound 18 in 28 day treated ZDF rats, decreased TSH levels greater than 90%."}, "[4]": {"tested_on": "mice", "experiment": "Circulating TSH, mice, 77 days", "assay_type": "in vivo, mouse", "conditions": "10 mg/kg/d for 77 days", "description": "as §1"}, "[5]": {"tested_on": "Normal rats", "experiment": "Hepatic triglyceride content in normal rats infused for 7 days", "assay_type": "in vivo, rat", "conditions": "normal rats chronically infused for 7 days", "experimental": "Normal rats were chronically infused with Compound 7 for 7 days. Liver triglycerides were analyzed following lipid extraction by the Bligh Dyer method (Bligh EG and Dyer WJ, A rapid method of total lipid extraction and purification. Can J Med Sci. 1959 (August); 37(8):911-7, incorporated herein by reference). Total triglycerides were analyzed in the liver extracts by an enzymatic assay (Thermo Electron Corporation). Total lipid was normalized to initial liver weight and triglyceride content was normalized to liver weight. […] There was a 4% reduction in liver triglycerides for this group and the results were not statistically significant."}, "[6]": {"tested_on": "normal rats maintained on a cholesterol-containing diet", "experiment": "Continuous infusion study in rats on a cholesterol-containing diet", "conditions": "continuous infusion 1 mg/kg/day", "quoted_text": "Screening for thyromimetic activity was performed in normal rats maintained on a cholesterol-containing diet."}, "[7]": {"tested_on": "ZDF rats", "conditions": "rat, in vivo, 28 days", "experimental": "Compound 18 was administered at doses up to 5 mg/kg/d. Compound cis-13-1 was administered at doses up to 50 mg/kg/d. We reasoned that the ZDF rat, as a metabolically challenged animal model, would be more sensitive to the potential adverse cardiac effects of thyromimetics than a normal, cholesterol-fed rat. At sacrifice, heart rate, and the first derivative of left ventricular pressure (LV dP/dt) were measured with a Millar catheter inserted into the left ventricle."}, "[8]": {"tested_on": "Sprague Dawley (SD) rat", "experiment": "Cardiovascular activity in the Sprague Dawley rat, 7 days oral", "assay_type": "in vivo", "conditions": "SD rats, Compound 18 1 mg/kg, Compound cis-13-1 1-50 mg/kg/day", "description": "Method: […] The control group (n=6) was given vehicle only. […] On the 7th day after the start of dosing, animals were anesthetized with Isofluorane and the left ventricle cannulated with a high fidelity catheter tip transducer via the right carotid artery. Left ventricular pressure, its first derivative (LVdP/dt), lead I ECG, and heart rate (HR) triggered off the ECG waveform, were digitally recorded. LV dP/dt is a well accepted measure of ionotropic state. Systolic and diastolic aortic pressures were measured by retracting the catheter into the proximal aorta."}, "[9]": {"tested_on": "Hypercholesterolemic rats", "experiment": "Cholesterol lowering in hypercholesterolemic rats", "assay_type": "in vivo, rat", "conditions": "0.5 mg/kg/d orally"}, "[10]": {"tested_on": "cholesterol-fed rat", "conditions": "ED15 for heart rate compared to ED50 for cholesterol lowering; cited from earlier work"}, "[11]": {"tested_on": "cholesterol-fed rats", "experiment": "Circulating TSH, cholesterol-fed rats, 7 days", "assay_type": "in vivo, rat", "conditions": "cholesterol-fed rats treated for 7 days; 30% decrease of TSH", "description": "as §1"}, "[12]": {"tested_on": "cholesterol fed rats", "experiment": "Subacute study in cholesterol fed rats, PO once a day for seven days: cholesterol reduction, heart weight", "assay_type": "in vivo, rat", "conditions": "1 mg/kg/day PO once a day for seven days", "experimental": "Methods: […] Compound 13-1-cis and Compound 18 were administered PO once a day for seven days. Serum TSH is measured using an enzyme immunoassay (EIA) kit designed for rat TSH (Amersham Pharmacia Biotech, Arlington Heights, Ill.). Expression levels of liver genes (e.g., the LDL-receptor, apoB, cpt-1, spot14 and apoAI) and heart genes ([…]2, HCN2,Kvl.5, MHCα, MHCβ, Alpha1c) are quantified by Northern blot analysis or by RT-PCR. […] Oligonucleotides specific for the complementary gene sequences are used to make ^32P-labeled probes (Multiprime DNA labeling systems, Amersham Pharmacia Biotech). Following hybridization of the probes to the nylon membranes, radioactivity is assessed on a blue film (Eastman Kodak Co,), and the resulting image quantified using the appropriate software. RT-PCR is performed using an iCycler instrument (Biorad) using appropriate primers by means of standard methodology [[…] et al. (2000) Life Sciences 66: 1683-94]. […] The activities of PEPCK and glucose 6-phosphatase in liver are measured by means of direct enzymatic assays of homogenized liver tissue as described by Andrikopoulos S et al. (1993) Diabetes 42: 1731-1736. Alternatively, expression levels of the corresponding genes are determined by Northern blot analysis or RT-PCR as described above."}, "[13]": {"molecular_target": "T1, human thyroid hormone receptors TRα1 (Homo sapiens, UniProt P10827)", "T1 sequence (P10827 1-410 isoform P10827-2)": "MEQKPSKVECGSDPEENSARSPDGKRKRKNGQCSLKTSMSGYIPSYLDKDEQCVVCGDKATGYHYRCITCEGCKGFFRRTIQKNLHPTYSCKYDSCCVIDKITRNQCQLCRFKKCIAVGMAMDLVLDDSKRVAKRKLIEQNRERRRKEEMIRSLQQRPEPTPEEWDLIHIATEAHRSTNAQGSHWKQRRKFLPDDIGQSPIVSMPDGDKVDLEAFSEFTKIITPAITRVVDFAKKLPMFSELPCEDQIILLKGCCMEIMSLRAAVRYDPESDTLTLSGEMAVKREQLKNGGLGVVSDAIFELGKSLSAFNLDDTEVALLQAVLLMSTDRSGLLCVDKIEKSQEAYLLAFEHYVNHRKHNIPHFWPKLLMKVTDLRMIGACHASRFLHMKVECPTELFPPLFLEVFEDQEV", "T1 sequence (P19793 1-462 partner)": "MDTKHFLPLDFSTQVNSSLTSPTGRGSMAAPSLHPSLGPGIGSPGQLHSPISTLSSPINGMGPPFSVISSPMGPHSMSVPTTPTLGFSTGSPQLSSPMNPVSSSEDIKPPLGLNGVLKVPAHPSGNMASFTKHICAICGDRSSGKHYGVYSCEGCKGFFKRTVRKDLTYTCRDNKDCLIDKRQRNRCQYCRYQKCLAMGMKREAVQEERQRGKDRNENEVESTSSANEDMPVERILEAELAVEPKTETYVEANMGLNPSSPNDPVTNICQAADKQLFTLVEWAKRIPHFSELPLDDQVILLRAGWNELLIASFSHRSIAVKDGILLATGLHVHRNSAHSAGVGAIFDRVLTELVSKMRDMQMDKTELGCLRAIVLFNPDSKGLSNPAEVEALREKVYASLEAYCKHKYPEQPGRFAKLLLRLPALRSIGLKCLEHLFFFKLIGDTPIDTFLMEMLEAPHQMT", "experiment": "Receptor binding: labeled T3 binding/displacement, gel filtration and scintillation proximity assay (SPA)", "conditions": "read-out: Ki TRα"}, "[14]": {"molecular_target": "T2, human thyroid hormone receptors TRβ1 (Homo sapiens, UniProt P10828)", "T2 sequence (P10828 1-461)": "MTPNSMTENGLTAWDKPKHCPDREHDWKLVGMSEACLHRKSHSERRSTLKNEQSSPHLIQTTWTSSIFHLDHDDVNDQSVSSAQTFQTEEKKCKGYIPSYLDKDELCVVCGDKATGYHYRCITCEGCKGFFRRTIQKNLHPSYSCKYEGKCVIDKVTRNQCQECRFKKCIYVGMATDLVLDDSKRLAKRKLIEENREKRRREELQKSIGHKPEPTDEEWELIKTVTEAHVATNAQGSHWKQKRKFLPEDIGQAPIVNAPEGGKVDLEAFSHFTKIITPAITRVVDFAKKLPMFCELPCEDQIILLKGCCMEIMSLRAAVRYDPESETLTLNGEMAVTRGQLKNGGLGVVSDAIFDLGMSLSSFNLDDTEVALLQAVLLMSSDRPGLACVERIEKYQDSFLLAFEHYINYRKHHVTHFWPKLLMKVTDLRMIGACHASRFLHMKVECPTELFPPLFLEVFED", "T2 sequence (P19793 1-462 partner)": "T1 sequence (P19793 1-462 partner)", "experiment": "Receptor binding: labeled T3 binding/displacement, gel filtration and scintillation proximity assay (SPA)", "conditions": "read-out: Ki TRβ"}},
  "data": [
    {"smiles": "Cc1cc(OCP(=O)(O)O)cc(C)c1Cc1ccc(O)c(C(C)C)c1", "note": "[Compound 7, [3,5-dimethyl-4-(4′-hydroxy-3′-iso-propylbenzyl)phenoxy]-methylphosphonic acid]", "values": [
      {"measurement": "Cardiac GPDH activity", "setting": "[1]; Compound 17 at 1 mg/kg/day, compound 7 only at 100 mg/kg", "result": "trend towards increased heart GPDH activity"},
      {"measurement": "therapeutic window (efficacy vs toxicity)", "setting": "[1]; cholesterol lowering vs cardiac hypertrophy, induction of heart GPDH", "result": "10-to 100 fold"},
      {"measurement": "microvesicular steatosis (H&E liver sections)", "setting": "[2]", "result": "dose dependent reduction in the microvesicular steatosis"},
      {"measurement": "TSH vs vehicle", "setting": "[3]", "result": "no statistically significant difference from vehicle"},
      {"measurement": "TSH", "setting": "[4]", "result": "no decrease in TSH was observed"},
      {"measurement": "decrease in hepatic triglyceride content", "setting": "[5]", "result": 64, "unit": "%"},
      {"measurement": "total cholesterol at day 7", "setting": "[6]", "result": "cholesterol lowering effects"},
      {"measurement": "total cholesterol at day 14", "setting": "[6]", "result": "cholesterol lowering effects"},
      {"measurement": "cardiovascular parameters (heart rate, LV dP/dt, blood pressure)", "setting": "[6]; day 7 or day 14", "result": "no changes in any of the cardiovascular parameters"}
    ]},
    {"smiles": "Cc1cc(OC[P@@]2(=O)OCC[C@@H](c3cccc(Cl)c3)O2)cc(C)c1Cc1ccc(O)c(C(C)C)c1", "note": "[Compound 13-1-cis, Cis (S)-2-[(3,5-Dimethyl-4-(4′-hydroxy-3′-iso-propylbenzyl)phenoxy)methyl]-4-(3-Chlorophenyl)-2-oxo-2λ^5-[1,3,2]-dioxaphosphinane]", "values": [
      {"measurement": "TI Improvement, ED15 HR", "setting": "[7]; ZDF", "result": ">39"},
      {"measurement": "TI Improvement, ED25 LV dP/dt", "setting": "[7]; ZDF", "result": ">102"},
      {"measurement": "calculated TI in a non-metabolically challenged animal with respect to LV dP/dt", "setting": "[7]", "result": "> 10,000"},
      {"measurement": "calculated TI in a non-metabolically challenged animal with respect to heart rate", "setting": "[7]", "result": "> 3900"},
      {"measurement": "HR, LV dP/dt and aortic pressure compared to vehicle", "setting": "[8]", "result": "not significantly different compared to vehicle treated animals"},
      {"measurement": "heart weight and heart weight normalized to body weight", "setting": "[8]", "result": "no significant changes"},
      {"measurement": "cholesterol lowering", "setting": "[9]", "result": "significant lowering of cholesterol"}
    ]},
    {"smiles": "CC(C)c1cc(Oc2c(Cl)cc(CC(=O)O)cc2Cl)ccc1O", "note": "[Compound 18, 3,5-dichloro-4-[4′-hydroxy-3′-iso-propylphenoxy]-benzeneacetic acid, reference compound]", "values": [
      {"measurement": "therapeutic index (TI) with respect to heart rate increases", "setting": "[10]", "result": 40},
      {"measurement": "TI for LV dP/dt", "setting": "[7]; ZDF, po", "result": 0.15},
      {"measurement": "therapeutic index with respect to heart rate", "setting": "[7]; ZDF, po", "result": 0.4},
      {"measurement": "therapeutic index of TSH levels", "setting": "[11]", "result": 0.4},
      {"measurement": "HR, LV dP/dt and aortic pressure compared to vehicle", "setting": "[8]", "result": "marked and statistically significant increases"},
      {"measurement": "serum cholesterol", "setting": "[12]", "result": "significantly decreased serum cholesterol"}
    ]},
    {"smiles": "Cc1cc(C(=O)CP(=O)(O)O)cc(C)c1Cc1ccc(F)c(C(C)C)c1", "note": "[Compound 41-2]", "values": [
      {"measurement": "Ki", "setting": "[13]", "result": "> 2000", "unit": "nM"},
      {"measurement": "Ki", "setting": "[14]", "result": "> 2000", "unit": "nM"}
    ]},
    {"smiles": "Cc1cc(CCP(=O)(O)O)cc(C)c1Oc1ccc(F)c(C(C)C)c1", "note": "[Compound 42-2]", "values": [
      {"measurement": "Ki", "setting": "[13]", "result": "> 2000", "unit": "nM"},
      {"measurement": "Ki", "setting": "[14]", "result": "> 2000", "unit": "nM"}
    ]}
  ]
}
